Measurements taken from patent US20080027006A1 (priority 2004, published 2008).

What follows are compounds tested against HR-N and HR-C regions of the SARS-CoV S glycoprotein (Severe acute respiratory syndrome coronavirus, UniProt P59594).
Type: binding, SARS coronavirus (Urbani strain)

| SMILES | induction of ellipticity at 222 nm with HR-C1 | interaction with HR-C1 (in words) |
| --- | --- | --- |
| CC[C@H](C)[C@H](NC(=O)[C@H](C)NC(=O)[C@H](CCCCN)NC(=O)[C@H](CC(N)=O)NC(=O)[C@H](Cc1ccccc1)NC(C)=O)C(=O)N[C@@H](CO)C(=O)N[C@@H](CCC(N)=O)C(=O)N[C@H](C(=O)N[C@@H](CCC(N)=O)C(=O)N[C@@H](CCC(=O)O)C(=O)N[C@@H](CO)C(=O)N[C@@H](CC(C)C)C(=O)N[C@H](C(=O)N[C@H](C(=O)N[C@H](C(=O)N[C@@H](CO)C(=O)N[C@H](C(=O)N[C@@H](C)C(=O)N[C@@H](CC(C)C)C(=O)NCC(=O)N[C@@H](CCCCN)C(=O)N[C@@H](CC(C)C)C(=O)N[C@@H](CCC(N)=O)C(=O)N[C@@H](CC(=O)O)C(=O)N[C@H](C(=O)N[C@H](C(=O)N[C@@H](CC(N)=O)C(=O)N[C@@H](CCC(N)=O)C(=O)N[C@@H](CC(N)=O)C(=O)N[C@@H](C)C(=O)N[C@@H](CCC(N)=O)C(=O)N[C@@H](C)C(=O)N[C@@H](CC(C)C)C(=O)N[C@@H](CC(N)=O)C(=O)N[C@H](C(N)=O)[C@@H](C)O)C(C)C)C(C)C)[C@@H](C)O)[C@@H](C)O)[C@@H](C)O)[C@@H](C)O)[C@@H](C)CC [HR-N9] | 3,500 degrees |  |
| CC[C@H](C)[C@H](NC(=O)[C@H](C)NC(=O)[C@H](CCCCN)NC(=O)[C@H](CC(N)=O)NC(=O)[C@H](Cc1ccccc1)NC(=O)[C@H](CCC(N)=O)NC(=O)[C@H](CC(N)=O)NC(=O)[C@H](C)NC(=O)[C@@H](NC(=O)[C@H](CCC(N)=O)NC(=O)[C@H](CCCCN)NC(=O)[C@H](CCC(N)=O)NC(=O)[C@H](CC(N)=O)NC(=O)[C@H](CCC(=O)O)NC(=O)[C@H](Cc1ccc(O)cc1)NC(=O)[C@H](CC(C)C)NC(=O)[C@@H](NC(=O)[C@H](CC(N)=O)NC(=O)[C@H](CCC(N)=O)NC(C)=O)C(C)C)[C@@H](C)CC)C(=O)N[C@@H](CO)C(=O)N[C@@H](CCC(N)=O)C(=O)N[C@H](C(=O)N[C@@H](CCC(N)=O)C(=O)N[C@@H](CCC(=O)O)C(=O)N[C@@H](CO)C(=O)N[C@@H](CC(C)C)C(=O)N[C@H](C(=O)N[C@H](C(=O)N[C@H](C(=O)N[C@@H](CO)C(=O)N[C@H](C(=O)N[C@@H](C)C(=O)N[C@@H](CC(C)C)C(=O)NCC(=O)N[C@@H](CCCCN)C(N)=O)[C@@H](C)O)[C@@H](C)O)[C@@H](C)O)[C@@H](C)O)[C@@H](C)CC [HR-N7] |  | No interactions |
| CC[C@H](C)[C@H](NC(=O)CNC(=O)[C@H](CC(N)=O)NC(=O)[C@H](Cc1ccccc1)NC(C)=O)C(=O)NCC(=O)N[C@H](C(=O)N[C@H](C(=O)N[C@@H](CCC(N)=O)C(=O)N[C@@H](CC(N)=O)C(=O)N[C@H](C(=O)N[C@@H](CC(C)C)C(=O)N[C@@H](Cc1ccc(O)cc1)C(=O)N[C@@H](CCC(=O)O)C(=O)N[C@@H](CC(N)=O)C(=O)N[C@@H](CCC(N)=O)C(=O)N[C@@H](CCCCN)C(=O)N[C@@H](CCC(N)=O)C(=O)N[C@H](C(=O)N[C@@H](C)C(=O)N[C@@H](CC(N)=O)C(=O)N[C@@H](CCC(N)=O)C(=O)N[C@@H](Cc1ccccc1)C(=O)N[C@@H](CC(N)=O)C(=O)N[C@@H](CCCCN)C(=O)N[C@@H](C)C(=O)N[C@H](C(=O)N[C@@H](CO)C(=O)N[C@@H](CCC(N)=O)C(=O)N[C@H](C(=O)N[C@@H](CCC(N)=O)C(=O)N[C@@H](CCC(=O)O)C(=O)N[C@@H](CO)C(=O)N[C@@H](CC(C)C)C(=O)N[C@H](C(=O)N[C@H](C(N)=O)[C@@H](C)O)[C@@H](C)O)[C@@H](C)CC)[C@@H](C)CC)[C@@H](C)CC)C(C)C)[C@@H](C)O)C(C)C [HR-N6] |  | No interactions |
| CC[C@H](C)[C@H](NC(=O)[C@H](C)NC(=O)CNC(=O)[C@H](Cc1ccccc1)NC(=O)[C@H](CC(N)=O)NC(=O)[C@H](CO)NC(=O)[C@H](CO)NC(=O)[C@H](CC(C)C)NC(=O)[C@H](CCC(N)=O)NC(=O)[C@H](CCCCN)NC(=O)[C@@H](NC(=O)[C@H](CC(C)C)NC(=O)[C@@H](NC(=O)[C@H](CC(N)=O)NC(=O)[C@H](CC(C)C)NC(=O)[C@H](C)NC(=O)[C@H](CCC(N)=O)NC(=O)[C@H](C)NC(=O)[C@H](CC(N)=O)NC(=O)[C@H](CCC(N)=O)NC(=O)[C@H](CC(N)=O)NC(=O)[C@@H](NC(=O)[C@@H](NC(=O)[C@H](CC(=O)O)NC(=O)[C@H](CCC(N)=O)NC(=O)[C@H](CC(C)C)NC(=O)[C@H](CCCCN)NC(=O)CNC(=O)[C@H](CC(C)C)NC(=O)[C@H](C)NC(=O)[C@@H](NC(=O)[C@H](CO)NC(=O)[C@@H](NC(C)=O)[C@@H](C)O)[C@@H](C)O)C(C)C)C(C)C)[C@@H](C)O)C(C)C)C(=O)N[C@@H](CO)C(=O)N[C@@H](CO)C(N)=O [HR-N11] |  | absence of any observable interaction |
| CC[C@H](C)[C@H](NC(=O)[C@H](C)NC(=O)[C@H](CCCCN)NC(=O)[C@H](CC(N)=O)NC(=O)[C@H](Cc1ccccc1)NC(=O)[C@H](CCC(N)=O)NC(=O)[C@H](CC(N)=O)NC(=O)[C@H](C)NC(=O)[C@@H](NC(=O)[C@H](CCC(N)=O)NC(=O)[C@H](CCCCN)NC(=O)[C@H](CCC(N)=O)NC(C)=O)[C@@H](C)CC)C(=O)N[C@@H](CO)C(=O)N[C@@H](CCC(N)=O)C(=O)N[C@H](C(=O)N[C@@H](CCC(N)=O)C(=O)N[C@@H](CCC(=O)O)C(=O)N[C@@H](CO)C(=O)N[C@@H](CC(C)C)C(=O)N[C@H](C(=O)N[C@H](C(=O)N[C@H](C(=O)N[C@@H](CO)C(=O)N[C@H](C(=O)N[C@@H](C)C(=O)N[C@@H](CC(C)C)C(=O)NCC(=O)N[C@@H](CCCCN)C(=O)N[C@@H](CC(C)C)C(=O)N[C@@H](CCC(N)=O)C(=O)N[C@@H](CC(=O)O)C(=O)N[C@H](C(=O)N[C@H](C(=O)N[C@@H](CC(N)=O)C(=O)N[C@@H](CCC(N)=O)C(N)=O)C(C)C)C(C)C)[C@@H](C)O)[C@@H](C)O)[C@@H](C)O)[C@@H](C)O)[C@@H](C)CC [HR-N8] |  | No interactions |
| CC[C@H](C)[C@H](NC(=O)[C@H](CCC(N)=O)NC(=O)[C@H](CO)NC(=O)[C@@H](NC(=O)[C@H](C)NC(=O)[C@H](CCCCN)NC(=O)[C@H](CC(N)=O)NC(=O)[C@H](Cc1ccccc1)NC(=O)[C@H](CCC(N)=O)NC(=O)[C@H](CC(N)=O)NC(=O)[C@H](C)NC(=O)[C@@H](NC(=O)[C@H](CCC(N)=O)NC(=O)[C@H](CCCCN)NC(=O)[C@H](CCC(N)=O)NC(=O)[C@H](CC(N)=O)NC(=O)[C@H](CCC(=O)O)NC(=O)[C@H](Cc1ccc(O)cc1)NC(=O)[C@H](CC(C)C)NC(=O)[C@@H](NC(=O)[C@H](CC(N)=O)NC(=O)[C@H](CCC(N)=O)NC(=O)[C@@H](NC(=O)[C@@H](NC(=O)CNC(=O)[C@@H](NC(=O)CNC(=O)[C@H](CC(N)=O)NC(=O)[C@H](Cc1ccccc1)NC(=O)[C@H](CCCNC(=N)N)NC(=O)[C@H](Cc1ccc(O)cc1)NC(=O)[C@H](C)NC(=O)[C@H](CCSC)NC(=O)[C@H](CCC(N)=O)NC(=O)[C@H](CCSC)NC(C)=O)[C@@H](C)CC)C(C)C)[C@@H](C)O)C(C)C)[C@@H](C)CC)[C@@H](C)CC)C(N)=O [HR-N5] |  | no detectable interaction |
| CC[C@H](C)[C@H](NC(C)=O)C(=O)N[C@@H](CCC(N)=O)C(=O)N[C@@H](CCC(=O)O)C(=O)N[C@@H](CO)C(=O)N[C@@H](CC(C)C)C(=O)N[C@H](C(=O)N[C@H](C(=O)N[C@H](C(=O)N[C@@H](CO)C(=O)N[C@H](C(=O)N[C@@H](C)C(=O)N[C@@H](CC(C)C)C(=O)NCC(=O)N[C@@H](CCCCN)C(=O)N[C@@H](CC(C)C)C(=O)N[C@@H](CCC(N)=O)C(=O)N[C@@H](CC(=O)O)C(=O)N[C@H](C(=O)N[C@H](C(=O)N[C@@H](CC(N)=O)C(=O)N[C@@H](CCC(N)=O)C(=O)N[C@@H](CC(N)=O)C(=O)N[C@@H](C)C(=O)N[C@@H](CCC(N)=O)C(=O)N[C@@H](C)C(=O)N[C@@H](CC(C)C)C(=O)N[C@@H](CC(N)=O)C(=O)N[C@H](C(=O)N[C@@H](CC(C)C)C(=O)N[C@H](C(=O)N[C@@H](CCCCN)C(=O)N[C@@H](CCC(N)=O)C(=O)N[C@@H](CC(C)C)C(=O)N[C@@H](CO)C(=O)N[C@@H](CO)C(N)=O)C(C)C)[C@@H](C)O)C(C)C)C(C)C)[C@@H](C)O)[C@@H](C)O)[C@@H](C)O)[C@@H](C)O [HR-N10] | 9,600 degrees |  |
